According to US12240828B2, “Heteroaromatic compounds as vanin inhibitors” (Boehringer Ingelheim International GmbH, priority 2018, dated 2025):

Legend:
Pantetheinase (vanin) = assay: Human Whole Blood assay; format: cell-based; settings: pantethine substrate, pantothenic acid formation by RapidFire MS, read-out: HWB IC50
Experimental: Human Whole Blood assay: Pantetheinase (vanin) converts panteheine into pantothenic acid and cysteamine. Accordingly, in the described protocol vanin activity is quantified by formation of pantothenic acid after pantetheine supplementation via pantethine. The assay is applicable to identify vanin inhibitors. Compound stocks are dissolved in DMSO at 10 mM. Further dilutions are performed in RPMI 1640 medium (Gibco, #A-10491-01) and final concentrations in the assay are 0.032 nM-500 nM.
Human blood is drawn into a blood bag (1% heparin, 50 I.E./mL). Blood is aliquoted into cavities of 96-deep-well plates at 290 μL and mixed with 10 μL compound solution or vehicle (30 sec at 1400 rpm on a shaker). Equilibration follows at room temperature, 250 rpm and for 30 min. The assay is starts by adding 10 μL of substrate solution (20 μM pantethine in 1 mM DTT, 0.0025% Brij-35, 50 mM HEPES, pH7.5) to each well, except for some blank wells which receive […] substrate buffer (1 mM DTT, 0.0025% Brij-35, 50 mM HEPES, pH7.5) only. Samples are thoroughly shaken (30 sec, 1400 rpm) and reaction is allowed to take place at room temperature, 250 rpm and for 5 min. The reaction is stopped by addition of a vanin tool inhibitor in excess (BI-1 total conc. 10 μM). Centrifugation of the plate follows at 4° C., 665 G for 10 min. Then the blood plasma samples (100 μL) are transferred into another 96-deep-well plate and proteins are precipitated (5 min on ice) by adding 100 μL of ice cold precipitation solution (1 μM labelled pantothenic acid (di-β-alanine-13C6,15N2 calcium salt, Sigma, #705837) in acetonitrile). Afterwards the plate is centrifuged (4° C., 3220 G, 10 min) and supernatants (50 μL) are collected into another 96-deep-well plate and mixed (10 sec, 1400 rpm) with 150 μL ice cold formic acid (0.1%, Carl Roth GmbH+Co.KG, #CP03.1). The formation of pantothenic acid is detected by RapidFire Mass Spectrometry. A TripleQuad 6500+ (ABSciex, Germany) is equipped with an LC-1290 system, a RapidFire autosampler (Agilent, Germany) and a C18 cartridge Type C 12 μL (Agilent Cat #G9526-80000). Mobile phase A is consisting of 0.09% formic acid and 0.01% trifluoroacetic acid in water and mobile phase B of 0.09% formic acid and 0.01% trifluoroacetic acid in acetonitrile/methanol/water=47.5/47.5/5.

[1] = biological target: T1, FLAG-tagged Vanin-1 (AA 22-493, T26I) (Homo sapiens, UniProt O95497, T26I); assay: Vanin-1 enzymatic assay; format: biochemical; settings: 0.1 nM Vanin-1, 3 μM D-pantethine, pantothenic acid formation by RapidFire MS; geometric mean if multiple measurements; read-out: VNN-1 IC50
T1 construct: FLAG-tagged Vanin-1 (AA 22-493, T26I, produced internally); FLAG; made in house
T1 sequence (O95497 22-493 T26I): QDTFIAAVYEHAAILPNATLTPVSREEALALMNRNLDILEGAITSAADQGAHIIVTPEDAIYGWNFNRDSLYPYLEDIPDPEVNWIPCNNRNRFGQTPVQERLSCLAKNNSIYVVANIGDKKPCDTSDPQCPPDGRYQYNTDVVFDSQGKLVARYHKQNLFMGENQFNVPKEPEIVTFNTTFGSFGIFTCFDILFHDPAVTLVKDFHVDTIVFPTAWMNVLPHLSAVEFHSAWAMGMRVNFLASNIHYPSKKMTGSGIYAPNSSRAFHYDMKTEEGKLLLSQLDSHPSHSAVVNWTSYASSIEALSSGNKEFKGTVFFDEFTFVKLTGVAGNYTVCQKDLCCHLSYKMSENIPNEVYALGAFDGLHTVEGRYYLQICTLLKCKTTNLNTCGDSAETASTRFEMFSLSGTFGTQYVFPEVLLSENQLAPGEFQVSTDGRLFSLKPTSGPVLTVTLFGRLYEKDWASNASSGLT
Experimental: The test compounds are dissolved in 100% DMSO at a concentration of 10 mM and in a first step diluted in DMSO to a concentration of 5 mM, followed by serial dilution steps in 100% DMSO. Dilution factor and number of dilution steps may vary according to needs. Typically 8 different concentrations by 1:5 dilutions are prepared, a further intermediate dilutions of the substances is carried out with assay buffer resulting in 1% final DMSO concentration in the assay.
0.1 nM of FLAG-tagged Vanin-1 (AA 22-493, T26I, produced internally) and test compounds are incubated at room temperature for 20 minutes in assay buffer (1 mM DTT, 0.0025% Brij-35, 50 mM HEPES, pH7.5). D-Pantethine (Sigma, Cat #P2125-5G) in assay buffer is added (final concentration 3 μM) and incubated for additional 30 minutes at room temperature. Total assay volume typically is 40 μl but might be adjusted according to needs. Reaction is stopped by adding equal volume of stop solution as the reaction mixture to reach 100 nM HD-pantothenic acid (as an internal standard) and 1% TFA. Assay plates are centrifuged for 2 minutes and the formation of pantothenic acid is detected by RapidFire Mass Spectrometry (mobile phase A: 0.1% formic acid and 0.01% trifluoroacetic acid in water; mobile phase B: 47.5% acetonitrile, 47.5% methanol, 0.1% formic acid and 0.01% trifluoroacetic acid in water) using a C18, 12 μL cartridge (Agilent Cat #G9205A).
The values given in Table I result from measurements of one or more samples. In case of multiple measurements the geometric mean values are given.

Row | IC50 (Pantetheinase (vanin)) [nM] | IC50 [1] [nM] | SMILES
1 | 1.82 | 0.09 | CC(=O)N(C)[C@H]1CCN(C(=O)c2ccc(NC(C)c3nccs3)nc2)C1 (single isomer, unassigned) [Example 5.1.A]
2 | – | 0.94 | CC(=O)N(C)[C@H]1CCN(C(=O)c2ccc(NC(C)c3nccs3)nc2)C1 (single isomer, unassigned) [Example 5.1.B]
3 | 2.59 | 0.09 | CC(=O)N(C)[C@H]1CCN(C(=O)c2ccc(NC(C)c3cccnc3)nc2)C1 (single isomer, unassigned) [Example 6.1.A]
4 | – | 1.43 | CC(=O)N(C)[C@H]1CCN(C(=O)c2ccc(NC(C)c3cccnc3)nc2)C1 (single isomer, unassigned) [Example 6.1.B]
5 | 1.95 | 0.19 | CC(=O)N(C)[C@H]1CCN(C(=O)c2ccc(NC3CCc4ncccc43)nc2)C1 (single isomer, unassigned) [Example 8.8]
6 | 76.4 | 8.56 | CC(=O)N(C)[C@H]1CCN(C(=O)c2ccc(NC3CCc4ncccc43)nc2)C1 (single isomer, unassigned) [Example 8.14]
7 | 5.04 | 1.27 | CC(=O)N(C)[C@H]1CCN(C(=O)c2ccc(NCc3cccc(C#N)c3)nc2)C1 [Example 1.1, N-[(3S)-1-(6-{[(3-Cyanophenyl)methyl]amino}pyridine-3-carbonyl)pyrrolidin-3-yl]-N-methylacetamide]
8 | 4.51 | 0.2 | CC(=O)N(C)[C@H]1CCN(C(=O)c2ccc(N[C@@H](C)c3ccccc3)nc2)C1 [Example 1.2]
9 | 1.03 | 1.02 | CC(=O)N(C)[C@H]1CCN(C(=O)c2ccc(NCc3cccc(Cl)c3)nc2)C1 [Example 1.3]
10 | 4.85 | 0.48 | CC(=O)N(C)[C@H]1CCN(C(=O)c2ccc(NCc3ccccc3Cl)nc2)C1 [Example 1.4]
11 | 1.59 | 0.07 | Cc1ccncc1CNc1ccc(C(=O)N2CC[C@H](N(C)C(=O)C3CC3)C2)cn1 [Example 1.5]
12 | 2.34 | 0.81 | CC(=O)N(C)[C@H]1CCN(C(=O)c2ccc(NCc3ccccc3)nc2)C1 [Example 1.6]
13 | – | 0.12 | CN(C(=O)C1(C)CCC1)[C@H]1CCN(C(=O)c2ccc(NCc3cccnc3Cl)nc2)C1 [Example 1.7]
14 | – | 0.17 | CN(C(=O)C1CC1)[C@H]1CCN(C(=O)c2ccc(NCc3ccc(Cl)nc3)nc2)C1 [Example 1.13]
15 | – | 0.27 | CNC(=O)c1cccc([C@H](C)Nc2ccc(C(=O)N3CC[C@H](N(C)C(C)=O)C3)cn2)c1 [Example 1.25]
16 | – | 0.32 | CN(C(=O)C1(C)CCC1)[C@H]1CCN(C(=O)c2ccc(NCc3ccc(Cl)nc3)nc2)C1 [Example 1.28]
17 | – | 0.34 | COC(=O)c1cccc(C(C)Nc2ccc(C(=O)N3CC[C@H](N(C)C(C)=O)C3)cn2)c1 (stereo partly drawn) [Example 1.29]
18 | – | 0.47 | CC(=O)N(C)[C@H]1CCN(C(=O)c2ccc(NCc3ccc(N)nc3)nc2)C1 [Example 1.34]
19 | – | 0.53 | CC(=O)N(C)[C@H]1CCN(C(=O)c2ccc(NC3CCc4[nH]ncc43)nc2)C1 (stereo partly drawn) [Example 1.35]
20 | – | 0.54 | CC(=O)Nc1cccc(C(C)Nc2ccc(C(=O)N3CC[C@H](N(C)C(C)=O)C3)cn2)c1 (stereo partly drawn) [Example 1.36]
21 | – | 0.66 | CN(C(=O)C1(C)CCC1)[C@H]1CCN(C(=O)c2ccc(NCc3cnccc3C(F)(F)F)nc2)C1 [Example 1.39]

Row | IC50 (Pantetheinase (vanin)) [nM] | IC50 [1] [nM] | SMILES
22 | – | 0.77 | CC(=O)N(C)[C@H]1CCN(C(=O)c2ccc(NCc3cncc(Br)c3)nc2)C1 [Example 1.41]
23 | – | 0.94 | CC(=O)N(C)[C@H]1CCN(C(=O)c2ccc(N[C@@H](C)c3cccc(S(=O)(=O)N(C)C)c3)nc2)C1 [Example 1.45]
24 | – | 0.96 | CN(C)c1ccc(CNc2ccc(C(=O)N3CC[C@H](N(C)C(=O)C4(C)CCC4)C3)cn2)cn1 [Example 1.46]
25 | – | 0.98 | CC(=O)N(C)[C@H]1CCN(C(=O)c2ccc(NCc3cccc(-c4nc(CC(F)(F)F)no4)c3)nc2)C1 [Example 1.48]
26 | – | 1.04 | CC(=O)N(C)[C@H]1CCN(C(=O)c2ccc(NCc3cccnn3)nc2)C1 [Example 1.49]
27 | – | 1.65 | CC(=O)N(C)[C@H]1CCN(C(=O)c2ccc(NCc3ccccn3)nc2)C1 [Example 1.56]
28 | – | 2.36 | CC[C@H](Nc1ccc(C(=O)N2CC[C@H](N(C)C(C)=O)C2)cn1)c1ccc(C(F)F)cc1 [Example 1.62]
29 | – | 4.33 | C[C@H](Nc1ccc(C(=O)N2CC[C@H](N(C)C(=O)C3(C)CCC3)C2)cn1)c1cnccn1 [Example 1.76]
30 | – | 6.99 | CC(=O)N(C)[C@H]1CCN(C(=O)c2ccc(NC3CCCc4cn[nH]c43)nc2)C1 (stereo partly drawn) [Example 1.81]
31 | – | 8.45 | CC(=O)N(C)[C@H]1CCN(C(=O)c2ccc(NCc3ccncc3)nc2)C1 [Example 1.87]
32 | – | 8.83 | CC(=O)N(C)[C@H]1CCN(C(=O)c2ccc(NCc3cc(CC(C)C)n[nH]3)nc2)C1 [Example 1.88]
33 | – | 9.37 | CC(=O)N(C)[C@H]1CCN(C(=O)c2ccc(NCc3ccnn3C)nc2)C1 [Example 1.90]
34 | – | 0.09 | CN(C(=O)C1CC(F)(F)C1)[C@H]1CCN(C(=O)c2ccc(NC(C)(C)c3ccccc3)nc2)C1 [Example 2.3]
35 | – | 0.21 | CC(=O)N(C)[C@H]1CCN(C(=O)c2ccc(NC3(c4ccccc4)CCC3)nc2)C1 [Example 4.6]
36 | – | 0.11 | CN(C(=O)C1(C)CCC1)[C@H]1CCN(C(=O)c2ccc(NC(C)(C)c3cccnc3)nc2)C1 [Example 8.1, N,1-Dimethyl-N-[(3S)-1-(6-{[2-(pyridin-3-yl)propan-2-yl]amino}pyridine-3-carbonyl)pyrrolidin-3-yl]cyclobutane-1-carboxamide]
37 | – | 4.28 | O=C(N[C@H]1CCN(C(=O)c2ccc(NC3(c4cncnc4)CC3)nc2)C1)C1CC1 [Example 8.13]
38 | – | 0.15 | CC(=O)N(C)[C@H]1CCN(C(=O)c2ccc(NC3(c4ccc(Cl)cc4)CCC3)nc2)C1 [Example 9.2]
39 | – | 0.72 | CC(=O)N(C)[C@H]1CCN(C(=O)c2ccc(NC(C)c3ccccc3)nc2)C1 (stereo partly drawn) [Example 9.7]
40 | – | 0.35 | CC(=O)N(C)[C@H]1CCN(C(=O)c2ccc(NC(C)c3cccc(C(N)=O)c3)nc2)C1 (stereo partly drawn) [Example 10.1, 3-[1-({5-[(3S)-3-(N-Methylacetamido)pyrrolidine-1-carbonyl]pyridin-2-yl}amino)ethyl]benzamide]
41 | – | 0.74 | CC(=O)N(C)[C@H]1CCN(C(=O)c2ccc(N[C@@H](C)c3ccc(C#N)nc3)nc2)C1 [Example 11.1, N-[(3S)-1-(6-{[(1S)-1-(6-cyanopyridin-3-yl)ethyl]amino}pyridine-3-carbonyl)pyrrolidin-3-yl]-N-methylacetamide]
